Reference: US20260337190A1, “CRYSTAL FORM OF PYRIDINOPYRIMIDINONE COMPOUND, ACID SALT THEREOF, CRYSTAL FORM OF ACID SALT THEREOF, AND USE” (Wuhan Humanwell Innovative Drug Research and Development …, priority 2022, published 2026)

Legend:
[1] = target: T1, KRAS G12C-SOS1 (Homo sapiens, UniProt Q07889); experiment: Inhibition of KRAS G12C::SOS1 binding; conditions: summary statement
T1 sequence (Q07889 1-1333): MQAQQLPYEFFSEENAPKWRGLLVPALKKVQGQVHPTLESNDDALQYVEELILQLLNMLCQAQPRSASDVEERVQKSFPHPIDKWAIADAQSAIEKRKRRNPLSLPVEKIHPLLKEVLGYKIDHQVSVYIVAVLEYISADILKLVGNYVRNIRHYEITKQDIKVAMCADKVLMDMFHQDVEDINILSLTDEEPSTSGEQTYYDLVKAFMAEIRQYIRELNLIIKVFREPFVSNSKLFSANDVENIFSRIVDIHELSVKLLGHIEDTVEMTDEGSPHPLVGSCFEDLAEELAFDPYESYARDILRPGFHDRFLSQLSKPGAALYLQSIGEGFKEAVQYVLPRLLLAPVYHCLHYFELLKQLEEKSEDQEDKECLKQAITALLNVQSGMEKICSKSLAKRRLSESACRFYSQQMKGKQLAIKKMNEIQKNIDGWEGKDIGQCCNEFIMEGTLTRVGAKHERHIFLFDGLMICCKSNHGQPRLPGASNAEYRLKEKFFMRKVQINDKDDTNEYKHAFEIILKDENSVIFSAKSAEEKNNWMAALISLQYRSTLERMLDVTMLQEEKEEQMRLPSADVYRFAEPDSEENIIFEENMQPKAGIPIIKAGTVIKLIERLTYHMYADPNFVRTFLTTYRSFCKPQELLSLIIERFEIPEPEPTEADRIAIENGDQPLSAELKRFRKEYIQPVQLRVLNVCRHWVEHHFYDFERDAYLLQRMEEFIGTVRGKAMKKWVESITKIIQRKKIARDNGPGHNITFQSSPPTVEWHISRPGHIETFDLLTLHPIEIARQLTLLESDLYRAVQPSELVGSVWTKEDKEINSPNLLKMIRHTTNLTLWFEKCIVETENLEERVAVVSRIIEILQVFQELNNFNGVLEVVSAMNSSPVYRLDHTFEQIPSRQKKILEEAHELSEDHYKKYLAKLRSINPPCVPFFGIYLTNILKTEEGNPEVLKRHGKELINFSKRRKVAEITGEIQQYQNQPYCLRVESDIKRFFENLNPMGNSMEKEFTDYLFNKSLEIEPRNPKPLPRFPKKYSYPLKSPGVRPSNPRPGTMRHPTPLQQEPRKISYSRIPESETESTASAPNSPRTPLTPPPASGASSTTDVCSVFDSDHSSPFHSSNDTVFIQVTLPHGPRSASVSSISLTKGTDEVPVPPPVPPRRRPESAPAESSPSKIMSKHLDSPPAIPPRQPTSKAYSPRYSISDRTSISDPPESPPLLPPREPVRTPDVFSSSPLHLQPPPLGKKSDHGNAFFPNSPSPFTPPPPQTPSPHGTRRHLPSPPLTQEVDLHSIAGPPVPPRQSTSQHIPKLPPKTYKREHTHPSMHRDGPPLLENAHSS

[2] = test system: ERK phosphorylation level in DLD-1 cells; experiment: Inhibition of ERK phosphorylation level in DLD-1 cells (intracellular western blot); assay type: cell-based; conditions: summary statement
Experimental: Intracellular western blot quantitative analysis was used to detect the inhibitory level of compounds on ERK phosphorylation in DLD-1 cells.
DLD-1 cells (ATCC, CCL-221) were seeded in a T75 culture flask at 2.5×10^6 cells/flask, and cultured in a RPMI 1640 medium containing 10% FBS for 2 days. On day 3, the cells were seeded on a 384-well plate, and cultured overnight at 37 °C, 5% CO2. After overnight culture, the plate was added with serially diluted compounds (the final content of DMSO was 0.5%), the negative group was added with DMSO, and incubated in a 37 °C, 5% CO2 incubator.
The cells were fixed, washed once with PBS, treated to disrupt membranes, and blocked at room temperature for 1 h. The blocking solution was removed. The plate was added with primary antibody (CST, Cat. No. #4370S), and incubated overnight at 4 °C The plate was washed 3 times with PBST (PBS solution added with 0.05% Tween-20), and soaked for 2 min each time. The plate was added with secondary antibody (LI-COR, Cat. No. 926-32211), and incubated at room temperature in the dark. The plate was washed 3 times with PBST, and soaked for 2 min each time.
The plate was centrifuged at 1000 rpm for 1 min, scanned on a two-color infrared laser imaging system (Odyssey® CLX) to read the signal.
Relative signal=800-channel signal values/700-channel signal values. […]
IC50 values were calculated using Graphpad 5 software.

[3] = test system: Mia Paca-2 tumor; experiment: In vivo efficacy on Mia Paca-2 pancreatic cancer (alone or with trametinib); set-up: species or system mice
Experimental: (§1) After one week of adaptive feeding of mice, Mia Paca-2 cells in a logarithmic phase were resuspended in serum-free DMEM, and then mixed with Matrigel in a ratio of 1:1. 1×10^7 Mia Paca-2 cells were inoculated subcutaneously at the right flank at 100 μL per mouse, and tumor growth was observed regularly. When the tumor grew to an average volume of 150 to 200 mm^3, the mice were randomly divided into a model group and an administration group (single drug, in combination with trametinib) based on the tumor size and body weight. The tumor size and body weight were measured and recorded before and during the administration. After the treatment, the tumor size in the model group was compared with that in the administration group to determine the efficacy.

[4] = test system: NCI-H1975 tumor; experiment: In vivo efficacy on NCI-H1975 non-small cell lung cancer (in combination with osimertinib); set-up: species or system mice
Experimental: NCI-H1975 tumor cells were cultured in an incubator at 37 °C and 5% CO2 using medium containing inactivated RPMI 1640+10% FBS. After reaching a confluency rate of 80 to 90%, the cells were passaged by subculturing. After one week of adaptive feeding in mice, NCI-H1975 cells in logarithmic phase were inoculated subcutaneously into the right flank of mice at a concentration of 5×10^6/100 μL. Tumor growth was regularly monitored until the tumors reached an average volume of 100 to 150 mm^3. […] Tumor size and animal weight were measured and recorded before and during the administration process. The differences in tumor size between the model group and administration group were compared to determine the efficacy.

[5] = test system: LOVO tumor; experiment: In vivo efficacy on LOVO colorectal cancer; set-up: species or system mice
Experimental: as §1, with “LOVO” for “Mia Paca-2”, “F12K, 5×10^6 LOVO” for “DMEM, and then mixed with Matrigel in a ratio of 1:1. 1×10^7 Mia Paca-2”, “group” for “group (single drug, in combination with trametinib)”

Cc1nc(N[C@H](C)c2cccc(S(F)(F)(F)(F)F)c2)c2cn(C3(CF)CC3)c(=O)cc2n1 [compound of formula I, (R)-6-(1-(fluoromethyl)cyclopropyl)-2-methyl-4-((1-(3-(pentafluorosulfanyl)phenyl)ethyl)amino)pyrido[4,3-d]pyrimidin-7(6H)-one]
inhibitory effect on KRAS G12C::SOS1 binding [1]: significant inhibitory effect | inhibitory effect on the ERK phosphorylation level in DLD-1 cells [2]: significant inhibitory effect | inhibitory effect on Mia Paca-2 tumor growth ([3]; alone or in combination with trametinib): significant inhibitory effect | combined use with trametinib vs single use, Mia Paca-2 tumor growth ([3]; in combination with trametinib): more effective than the single use | average tumor volume at the end of the treatment vs single-drug group of osimertinib ([4]; compound I-1 7.5 mg/kg BID or 25 mg/kg BID + osimertinib 1 mg/kg QD): significantly reduced, and the difference is statistically significant | synergistic effect of combined administration ([4]; compound I-1 25 mg/kg BID + osimertinib 1 mg/kg QD): synergistic effect | anti-tumor efficacy of combination with osimertinib vs single-drug administration ([4]; in combination with osimertinib): significantly better than that of single-drug administration | inhibitory effect on LOVO tumor tissue growth vs control compound II ([5]; comparison with control compound II): better than that of the control compound II | inhibitory effect on LOVO tumor tissue growth ([5]; mouse, in vivo): significant inhibitory effect
